Where two headings read alike, the source gives them in different places. *1 amine or outer side, *2 acyl side, *3 side chain or, on linkers, in order; H or OH if unused. Where a SMILES comes first, the peptide text is derived from it. Where no end group is shown, it is not given here. Side-chain parts run from the residue outwards. The star is where a group is joined. C18 diacid = O=C(O)CCCCCCCCCCCCCCCCC(=O)*; γGlu = O=C(O)[C@H](CCC(=O)[*:2])N[*:1]; AEEA = NCCOCCOCC(=O)O
Experiments:
RIN-m5F cells = experiment: In vitro activity determination in RIN-m5F cells (cAMP assay kit); type: cell-based
Procedure: RIN-m5F cells with good culturing status are selected. Cells are then collected, counted, and prepared into a cell suspension of 1×10^5 cells/ml with RPMI1640 basal medium. The cell suspension is inoculated in a 96-well cell culture plate, 100 μl per well, then incubating overnight at 37° C. and 5% CO2.
The prepared cell plate is taken out, then discarding the medium, and blotting it dry on the filter paper. The sample solutions are transferred correspondingly into the cell plate, 40 μl/well; treating with the lid open for 15 min at 37° C. and 5% CO2. The cell culture plate is taken out from the incubator, then adding 10 μl of CD solution (cAMP assay kit, Promega) to each well, keeping the cell plate at 22-25° C., and shaking horizontally at 500 rpm for 20 min. 50 μl of KG solution (cAMP assay kit, Promega) is added to each well, then shaking horizontally at 22° C.-25° C., 500 rpm and avoiding light for 10 min. The chemiluminescence value is read by using the Molecular Devices SpectraMax L chemiluminescence apparatus, completing the measurement in 30 min. EC50 of a sample is calculated by using the four-parameter regression in softmax Pro software.

CD-1 mice = type: in vivo; settings: 0.15 mg/kg s.c.; for Inhibition rate (blood glucose): Table 5 (second experiment), CD-1 mice; for glucose-lowing effects (comparison in words, Tables 4 and 5): normal mice
Procedure: Twenty-eight healthy female CD-1 mice aged 4-6 weeks are selected and divided into 4 groups, and they are injected subcutaneously with M4, M5, M7 and M0 at a dose of 0.15 mg/kg body weight.

ICR mice = type: in vivo; design: G-AUC: unit not given here
Procedure: 20% glucose is intragastrically administered every day according to the time schedule of 4 h, 1 d, 2 d, 3 d, 4 d, and 5 d, at a dose of 2 g/kg body weight, and fasting for 6 hours before administering the glucose; and blood is respectively collected from the tip of the tail at 0 h, 0.5 h, 1 h and 2 h after giving the 20% glucose, then measuring the blood glucose value in real time by using Roche blood glucose test paper.

GLP1R = target: T1, GLP1R (Homo sapiens, UniProt P43220); experiment: In vitro activity determination in HEK293/CRE-Luc/GLP1R cells (luciferase reporter); type: cell-based
T1 construct: expressed in transfected cells; host or cells: HEK293
Procedure: Based on the fact that GLP-1 may bind to the receptor on the cell membrane, the HEK293/CRE-Luc/GLPIR cell line is constructed, the CAMP response elements (CRE) are activated through a series of signal transduction, the expression of downstream luciferase is initiated, and the amount of its expression is positively correlated with the biological activity of GLP-1. After adding the luciferase substrate, the chemiluminescence assay is performed to determine the luminous intensity, thereby determining the biological activity of GLP-1.
96-well cell culture plate (white and opaque), DMEM medium (GIBCO), 0.05% TRYPSIN-EDTA (GIBCO), fetal bovine serum (GIBCO), G418, hygromycin B, Bright-Glo™ Luciferase Assay System Kit (Promega), and HEK293/CRE-luc/GLP1R cells.
(1) Cell preparation: the cells are cultured until they grow vigorously and reach a sufficient quantity, discarding the culture medium in the culture bottle, adding 3 ml of Versene solution and shaking once; then adding 2 ml of 0.05% TRYPSIN-EDTA digestion solution, covering the bottle and standing for 1 minute, and then adding 6 ml of the assay medium to quench the digestion; after centrifugation at 1000 r/min for 3 min, the supernatant is discarded, and the cells are resuspended in 5 ml of assay medium and counted on a hemacytometer. The cell density is adjusted to an appropriate range for later use by using DMEM assay medium.
(2) Sample preparation: the derivatives of different GLP-1 analogues in Table 1 are diluted to 20 ng/ml with the assay medium, then gradient diluted into 8 concentrations in 96-well plates, and using the assay medium instead of the sample as the cell blank control. 2 duplicate wells are made for each dilution concentration.
(3) Culturing with addition of the samples: the prepared solutions of the control and test samples are transferred to a 96-well cell culture plate (white board), adding 50 μl of the solution to each well; then adding the prepared cell suspension, adding 50 μl of the suspension to each well; and then incubating for a certain period of time under the conditions of 37° C. and 5% CO2.
(4) Chemiluminescence assay: substrate is added, then taking out the 96-well cell culture plate, adding 100 μl of Bright Glo reagent to each well, and leaving in the dark for 3 min.
(5) Reading: determination is performed with a chemiluminescence microplate reader SpectraMax L, then reading the plate within 30 min, and recording the determined results.

db/db mice = experiment: Fasting blood glucose after single injection in type II diabetic db/db mice (FIG. 1); type: in vivo; settings: 0.05 mg/kg s.c. single, day 4 and day 5
Procedure: The dosage is 0.05 mg/kg for each, and the administration time is set as 0 h. Fasting blood glucose is measured after fasting for 6-8 h every day, and the fasting blood glucose after administration is measured every day until the fasting blood glucose value of each animal of the test group recovers to the value measured before administration. The blood glucose value measured before administration is called the basal blood glucose value, and is set as 0. Change of the fasting blood glucose (Δ: delta)=Blood glucose value after administration-Basal blood glucose value before administration.

T1 sequence (P43220 24-463, species assumed): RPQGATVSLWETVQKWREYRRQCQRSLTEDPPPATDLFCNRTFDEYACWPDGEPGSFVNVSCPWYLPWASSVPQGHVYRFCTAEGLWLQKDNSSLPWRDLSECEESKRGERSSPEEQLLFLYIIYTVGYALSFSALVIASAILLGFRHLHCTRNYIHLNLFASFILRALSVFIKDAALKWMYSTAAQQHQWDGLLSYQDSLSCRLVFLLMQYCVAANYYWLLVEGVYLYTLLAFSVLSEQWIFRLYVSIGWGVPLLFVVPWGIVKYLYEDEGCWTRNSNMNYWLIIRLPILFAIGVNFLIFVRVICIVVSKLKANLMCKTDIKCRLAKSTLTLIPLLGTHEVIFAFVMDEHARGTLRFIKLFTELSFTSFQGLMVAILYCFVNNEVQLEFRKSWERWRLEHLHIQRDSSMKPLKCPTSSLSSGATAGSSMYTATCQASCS

Compound | in vitro activities (comparison in words) (RIN-m5F cells) | Inhibition rate (blood glucose) (CD-1 mice; 6 h) | Inhibition rate (blood glucose) (CD-1 mice; 30 h) | Inhibition rate (blood glucose) (CD-1 mice; 54 h) | Inhibition rate (blood glucose) (CD-1 mice; 78 h) | Inhibition rate (blood glucose) (CD-1 mice; 102 h) | glucose-lowing effects (comparison in words, Tables 4 and 5) (CD-1 mice) | G-AUC (ICR mice; 0 h (before administration)) | G-AUC (ICR mice; 0.15 mg/kg s.c. single, 4 h) | Inhibition rate (blood glucose) (ICR mice; 0.15 mg/kg s.c. single, 4 h) | G-AUC (ICR mice; 0.15 mg/kg s.c. single, 1 d) | Inhibition rate (blood glucose) (ICR mice; 0.15 mg/kg s.c. single, 1 d) | G-AUC (ICR mice; 0.15 mg/kg s.c. single, 2 d) | Inhibition rate (blood glucose) (ICR mice; 0.15 mg/kg s.c. single, 2 d) | G-AUC (ICR mice; 0.15 mg/kg s.c. single, 3 d) | Inhibition rate (blood glucose) (ICR mice; 0.15 mg/kg s.c. single, 3 d) | G-AUC (ICR mice; 0.15 mg/kg s.c. single, 4 d) | Inhibition rate (blood glucose) (ICR mice; 0.15 mg/kg s.c. single, 4 d) | G-AUC (ICR mice; 0.15 mg/kg s.c. single, 5 d) | Inhibition rate (blood glucose) (ICR mice; 0.15 mg/kg s.c. single, 5 d) | also measured
N-ε^34-[2-(2-[2-(2-[2-(2-[4-(17-carboxyheptadecanoylamino)-4(s)-carboxybutyrylamino]ethoxy)ethoxy]acetylamino)ethoxy]ethoxy)acetyl](Val^8Glu^22 Arg^26Lys^34-GLP-1(7-37)) peptide (HVEGTFTSDVSSYLEEQAAREFIAWLVK([AEEA-AEEA-γGlu-C18 diacid])GRG) [M5] | comparable | 29.59% | 39.47% | 30.11% | 27.07% | 15.38% | comparable | 16.3 ± 2.5 | 11.5 ± 1.0 | 29.59% | 9.9 ± 0.7 | 39.47% | 11.4 ± 1.3 | 30.11% | 11.9 ± 2.0 | 27.07% | 13.8 ± 1.9 | 15.38% | 14.4 ± 2.2 | 11.66% | –
N-ε^37-[2-(2-[2-(2-[2-(2-[4-(17-carboxyheptadecanoylamino)-4(s)-carboxybutyrylamino]ethoxy)ethoxy]acetylamino)ethoxy]ethoxy)acetyl](Val^8Glu^22Arg^26,34Lys^37-GLP-1 (7-37)) peptide (HVEGTFTSDVSSYLEEQAAREFIAWLVRGRK([AEEA-AEEA-γGlu-C18 diacid])) [M7] | comparable | 27.22% | 38.82% | 22.56% | 22.48% | 11.60% | comparable | 16.3 ± 2.7 | 11.8 ± 1.4 | 27.22% | 10.0 ± 1.6 | 38.82% | 12.6 ± 1.5 | 22.56% | 12.6 ± 0.7 | 22.48% | 14.4 ± 1.1 | 11.60% | 15.2 ± 1.0 | 6.76% | –
CC[C@H](C)[C@H](NC(=O)[C@H](Cc1ccccc1)NC(=O)[C@H](CCC(=O)O)NC(=O)[C@H](CCCNC(=N)N)NC(=O)[C@H](C)NC(=O)[C@H](C)NC(=O)[C@H](CCC(N)=O)NC(=O)[C@H](CCC(=O)O)NC(=O)[C@H](CCC(=O)O)NC(=O)[C@H](CC(C)C)NC(=O)[C@H](Cc1ccc(O)cc1)NC(=O)[C@H](CO)NC(=O)[C@H](CO)NC(=O)[C@@H](NC(=O)[C@H](CC(=O)O)NC(=O)[C@H](CO)NC(=O)[C@@H](NC(=O)[C@H](Cc1ccccc1)NC(=O)[C@@H](NC(=O)CNC(=O)[C@H](CCC(=O)O)NC(=O)[C@@H](NC(=O)[C@@H](N)Cc1c[nH]cn1)[C@@H](C)CC)[C@@H](C)O)[C@@H](C)O)C(C)C)C(=O)N[C@@H](CCCCNC(=O)COCCOCCNC(=O)COCCOCCNC(=O)CC[C@H](NC(=O)CCCCCCCCCCCCCCCCC(=O)O)C(=O)O)C(=O)N[C@@H](Cc1c[nH]c2ccccc12)C(=O)N[C@@H](CC(C)C)C(=O)N[C@H](C(=O)N[C@@H](CCCNC(=N)N)C(=O)NCC(=O)N[C@@H](CCCNC(=N)N)C(=O)NCC(=O)O)C(C)C [M14, N-ε^30-[2-(2-[2-(2-[2-(2-[4-(17-carboxyheptadecanoylamino)-4(s)-carboxybutyrylamino]ethoxy)ethoxy]acetylamino)ethoxy]ethoxy)acetyl](Ile^8Glu^22Lys^30Arg^26,34-GLP-1(7-37)) peptide] (H-HIEGTFTSDVSSYLEEQAAREFIK([AEEA-AEEA-γGlu-C18 diacid])WLVRGRG-OH; N-terminus and C-terminus assumed) | – | – | – | – | – | – | – | – | – | – | – | – | – | – | – | – | – | – | – | – | in vitro activities (comparison in words) (GLP1R): comparable; glucose-lowing effect compared with Semaglutide (FIG. 1) (db/db mice): better than that of Semaglutide

— patent US12508300B2, “Acylated GLP-1 derivative” (Sciwind Biosciences Co., Ltd., priority 2019, dated 2025)
